Experimental data reported in patent US10047104B2, “Bicyclic heterocyclyl derivatives as IRAK4 inhibitors” (Aurigene Discovery Technologies Limited, priority 2014, dated 2018).

target: T1, recombinant IRAK-4 kinase (Homo sapiens, UniProt Q9NWZ3); assay: IRAK-4 Biochemical Assay (TR-FRET); details: 5 ng IRAK-4 kinase, 100 nM Biotin Histone H3, 20 μM ATP, 30 minutes pre-incubation, read-out: IC50 values for IRAK4 activity
T1 construct: purchased Millipore, USA
T1 sequence (Q9NWZ3 1-460): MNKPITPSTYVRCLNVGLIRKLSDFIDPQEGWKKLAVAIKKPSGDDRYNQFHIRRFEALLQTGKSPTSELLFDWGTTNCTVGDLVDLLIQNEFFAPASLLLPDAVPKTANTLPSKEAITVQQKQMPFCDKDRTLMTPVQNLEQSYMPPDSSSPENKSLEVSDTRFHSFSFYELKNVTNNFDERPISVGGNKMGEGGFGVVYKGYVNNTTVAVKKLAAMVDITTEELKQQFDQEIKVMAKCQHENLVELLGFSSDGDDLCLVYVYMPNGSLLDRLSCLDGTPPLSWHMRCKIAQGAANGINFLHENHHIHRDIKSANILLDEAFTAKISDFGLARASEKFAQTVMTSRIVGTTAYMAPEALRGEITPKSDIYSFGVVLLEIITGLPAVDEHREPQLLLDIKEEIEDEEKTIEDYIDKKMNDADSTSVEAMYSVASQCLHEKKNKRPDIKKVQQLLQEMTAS
Method in brief: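 Recombinant IRAK-4 (5 ng) pre-incubated with compound 30 min at room temperature in Tris-HCl pH 7.5 with MgCl2/MnCl2, then 100 nM biotin-histone H3 and 20 μM ATP added for 30 min. Stopped with EDTA; phospho-Ser10 read by TR-FRET (Eu-antibody/APC-streptavidin).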

IC50 | SMILES
< 50 nM | Cc1cc(-c2ccc(C(=O)Nc3cc4sc(N5CCOCC5)nc4nc3N3CCC[C@@H](O)C3)o2)ccn1 [Example 95, (R)—N-(5-(3-hydroxypiperidin-1-yl)-2-morpholinothiazolo[4,5-b]pyridin-6-yl)-5-(2-methylpyridin-4-yl)furan-2-carboxamide]
< 50 nM | C[C@H](O)Cn1cc(-c2cccc(C(=O)Nc3cc4sc(N5CCOCC5)nc4nc3N3CCCCC3)n2)cn1 [Example 96, (S)-6-(1-(2-hydroxypropyl)-1H-pyrazol-4-yl)-N-(2-morpholino-5-(piperidin-1-yl)thiazolo[4,5-b]pyridin-6-yl)picolinamide]
< 50 nM | Cc1cc(-c2ccc(C(=O)Nc3cc4sc(N5CCOCC5)nc4nc3N3CCC(F)CC3)o2)ccn1 [Example 97, N-(5-(4-fluoropiperidin-1-yl)-2-morpholinothiazolo[4,5-b]pyridin-6-yl)-5-(2-methylpyridin-4-yl)furan-2-carboxamide]
< 50 nM | Cc1cc(-c2nc(C(=O)Nc3cc4sc(N5CCOCC5)nc4nc3N3CCC(F)CC3)co2)ccn1 [Example 98, N-(5-(4-fluoropiperidin-1-yl)-2-morpholinothiazolo[4,5-b]pyridin-6-yl)-2-(2-methylpyridin-4-yl)oxazole-4-carboxamide]
< 50 nM | Cc1cc(-c2nc(C(=O)Nc3cc4sc(N5CCOCC5)nc4nc3-c3cnn(C)c3)co2)ccn1 [Example 99, N-(5-(1-methyl-1H-pyrazol-4-yl)-2-morpholinothiazolo[4,5-b]pyridin-6-yl)-2-(2-methylpyridin-4-yl)oxazole-4-carboxamide]
< 50 nM | Cc1cc(-c2nc(C(=O)Nc3cc4sc(N5CCOCC5)nc4nc3-c3cccc(F)c3)co2)ccn1 [Example 100, N-(5-(3-fluorophenyl)-2-morpholinothiazolo[4,5-b]pyridin-6-yl)-2-(2-methylpyridin-4-yl)oxazole-4-carboxamide]
< 50 nM | Cc1cc(-c2ccc(C(=O)Nc3cc4sc(N5CCOCC5)nc4nc3N3CCC(O)CC3)o2)ccn1 [Example 101, N-(5-(4-hydroxypiperidin-1-yl)-2-morpholinothiazolo[4,5-b]pyridin-6-yl)-5-(2-methylpyridin-4-yl)furan-2-carboxamide]
< 50 nM | Cc1cc(-c2ccc(C(=O)Nc3cc4sc(N5CCOCC5)nc4nc3N3CCCC(F)C3)o2)ccn1 (stereo not drawn) [Example 102, N-(5-(3-fluoropiperidin-1-yl)-2-morpholinothiazolo[4,5-b]pyridin-6-yl)-5-(2-methylpyridin-4-yl)furan-2-carboxamide]
> 100 nM | COc1ccc(-c2nc(C(=O)Nc3cc4oc(N5CCOCC5)nc4nc3N3CC[C@H](O)C3)co2)cn1 [Example 103, (S)—N-(5-(3-hydroxypyrrolidin-1-yl)-2-morpholinooxazolo[4,5-b]pyridin-6-yl)-2-(6-methoxypyridin-3-yl)oxazole-4-carboxamide]
> 100 nM | COc1ccc(-c2nc(C(=O)Nc3cc4oc(N5CCOCC5)nc4nc3N3CC[C@@H](O)C3)co2)cn1 [Example 105, (R)—N-(5-(3-hydroxypyrrolidin-1-yl)-2-morpholinooxazolo[4,5-b]pyridin-6-yl)-2-(6-methoxypyridin-3-yl)oxazole-4-carboxamide]
> 100 nM | COc1ccc(-c2nc(C(=O)Nc3cc4oc(N5CCOCC5)nc4nc3N3CCC(O)C3)co2)cn1 (stereo not drawn) [Example 106, N-(5-(3-hydroxypyrrolidin-1-yl)-2-morpholinooxazolo[4,5-b]pyridin-6-yl)-2-(6-methoxypyridin-3-yl)oxazole-4-carboxamide]
> 100 nM | Cc1cc(-c2ccc(C(=O)Nc3cc4oc(N5CCOCC5)nc4nc3N3CC[C@H](O)C3)o2)ccn1 [Example 107, (S)—N-(5-(3-hydroxypyrrolidin-1-yl)-2-morpholinooxazolo[4,5-b]pyridin-6-yl)-5-(2-methylpyridin-4-yl)furan-2-carboxamide]
